Source: article PMC3596085 (International journal for parasitology, drugs and drug …, 2012)
Read-outs that look alike come from different tables or passages of the source.

Key:
[1] = target: T1, human CYP3A4 (Homo sapiens, UniProt P08684)
[2] = test system: human CYP51; assay: Reconstitution of CYP51 activity in vitro; format: biochemical; conditions: 60′ reaction, lanosterol
[3] = test system: NIH/3T3 mouse embryonic fibroblasts; assay: Growth inhibition assay using 5-bromodeoxyuridine incorporation; format: cell-based; conditions: 50 μM, 24 h treatment, BrdU incorporation, vs DMSO
[4] = as above; format: cell-based, mouse; conditions: mouse
[5] = test system: T. cruzi CYP51 gene expression; conditions: ref Lepesheva et al., 2010a; cited from earlier work
[6] = test system: Trypanosoma cruzi; conditions: ref Villalta et al., submitted for publication; cited from earlier work
[7] = test system: Female Swiss Webster mice; assay: Acute mice toxicity study; format: in vivo, mouse; conditions: oral, up to 400 mg/kg, up to 48 h
[8] = Acute mice toxicity study; format: in vivo, mouse; conditions: female, Swiss Webster, mouse, in vivo, po
[9] = test system: T. cruzi CYP51; conditions: standard CYP51 reaction conditions; ref Lepesheva et al., 2007; cited from earlier work
[10] = test system: T. brucei CYP51; conditions: standard CYP51 reaction conditions; ref Lepesheva et al., 2007; cited from earlier work
[11] = VNI oral pharmacokinetics in mouse plasma; format: in vivo; conditions: 25 mg/kg
[12] = target: T1, human CYP3A4; assay: Inhibitory effect on CYP3A4
[13] = test system: human CYP51; conditions: standard CYP51 reaction conditions; ref Lepesheva et al., 2008; cited from earlier work
[14] = test system: T. brucei; conditions: ref Lepesheva et al., 2010b; cited from earlier work
[15] = target: T. cruzi CYP51 (Trypanosoma cruzi, UniProt Q7Z1V1); assay: CYP51 spectral titration; format: binding
Sequence of T. cruzi CYP51 (Trypanosoma cruzi, UniProt Q7Z1V1) (Q7Z1V1 whole entry): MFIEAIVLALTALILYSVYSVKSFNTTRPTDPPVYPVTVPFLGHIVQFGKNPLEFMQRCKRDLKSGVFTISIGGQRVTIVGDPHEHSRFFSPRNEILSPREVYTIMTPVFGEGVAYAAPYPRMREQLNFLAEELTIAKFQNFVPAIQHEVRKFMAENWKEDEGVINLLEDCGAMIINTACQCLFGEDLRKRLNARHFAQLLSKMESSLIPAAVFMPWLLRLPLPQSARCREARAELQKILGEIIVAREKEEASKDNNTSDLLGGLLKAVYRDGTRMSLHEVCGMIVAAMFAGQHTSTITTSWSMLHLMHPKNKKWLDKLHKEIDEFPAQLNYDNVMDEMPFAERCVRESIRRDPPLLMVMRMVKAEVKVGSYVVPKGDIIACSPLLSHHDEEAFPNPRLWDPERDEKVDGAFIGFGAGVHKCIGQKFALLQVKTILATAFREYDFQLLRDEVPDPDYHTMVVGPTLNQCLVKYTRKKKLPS

T1 sequence (P08684 whole entry): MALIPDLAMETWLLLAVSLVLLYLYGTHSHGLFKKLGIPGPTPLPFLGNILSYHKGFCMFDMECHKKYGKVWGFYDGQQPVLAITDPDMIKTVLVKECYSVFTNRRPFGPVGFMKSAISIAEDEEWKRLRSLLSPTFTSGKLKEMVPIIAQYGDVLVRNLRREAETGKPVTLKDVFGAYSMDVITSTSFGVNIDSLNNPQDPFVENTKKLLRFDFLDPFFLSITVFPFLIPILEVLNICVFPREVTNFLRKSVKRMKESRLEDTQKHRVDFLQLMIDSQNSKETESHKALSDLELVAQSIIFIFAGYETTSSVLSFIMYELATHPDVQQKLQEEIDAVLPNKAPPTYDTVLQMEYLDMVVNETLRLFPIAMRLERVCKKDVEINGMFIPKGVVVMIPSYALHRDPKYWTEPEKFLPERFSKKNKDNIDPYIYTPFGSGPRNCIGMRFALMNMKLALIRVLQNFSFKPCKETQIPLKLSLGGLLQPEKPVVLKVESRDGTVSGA

O=C(N[C@H](Cn1ccnc1)c1ccc(Cl)cc1Cl)c1ccc(-c2nnc(-c3ccccc3)o2)cc1 (single isomer, unassigned) [VNI S-enantiomer]
IC50 [1]: 290 ± 19 nM | CYP51 inhibition, Human (inhibitor/enzyme molar ratio for 50% inhibition) [2]: >200 | Mammalian cell growth: % of viable 3T3 cells at 50 μM [3]: 77.1 ± 2.6%

CC(=O)N1CCN(c2ccc(OCC3COC(Cn4ccnc4)(c4ccc(Cl)cc4Cl)O3)cc2)CC1 (stereo not drawn) [Ketoconazole, reference compound]
viability at 24 h, 50 µM [4]: 0%

O=C(N[C@@H](Cn1ccnc1)c1ccc(Cl)cc1Cl)c1ccc(-c2nnc(-c3ccccc3)o2)cc1 [VNI, (R)-N-(1-(2,4-dichlorophenyl)-2-(1H-imidazol-1-yl)ethyl)-4-(5-phenyl-1,3,4-oxadiazol-2-yl)benzamide]
induction of T. cruzi CYP51 gene expression [5]: do not induce | effect in the murine model of Chagas disease [6]: Curative effect | mortality [7]: neither leads to mortality | NOAEL at 48 h [8]: 400 mg/kg | inhibition of T. cruzi CYP51 activity at 1:1 molar ratio to the enzyme [9]: completely inhibit | inhibition of T. brucei CYP51 activity at 1:1 molar ratio to the enzyme [10]: completely inhibit | concentration at 2 h [11]: 40 µM | concentration at 8 h [11]: > 20 µM | IC50 [12]: 405 ± 23 nM | inhibition of the human CYP51 ortholog [13]: do not inhibit | CYP51 inhibition, Human (inhibitor/enzyme molar ratio for 50% inhibition) [2]: >200 | parasitemia in the mouse model of T. brucei infection [14]: slows down parasitemia | Mammalian cell growth: % of viable 3T3 cells at 50 μM ([3]; 50 µM): 76.8 ± 2.1% | Kd [15]: 90 ± 10 nM

VNI/VNF combination
IC50 [1]: 3580 ± 271 nM | CYP51 inhibition, Human (inhibitor/enzyme molar ratio for 50% inhibition) [2]: 15 ± 0.9 | Mammalian cell growth: % of viable 3T3 cells at 50 μM [3]: 77.2 ± 6.3%
